This note sets out measurements from patent US20120136003A1, “COMPOUNDS, COMPOSITIONS AND METHODS COMPRISING 1,3,4-OXADIAZOLE DERIVATIVES” (Institute For Oneworld Health, priority 2009, published 2012).

Sequence of CFTR (P13569 whole entry): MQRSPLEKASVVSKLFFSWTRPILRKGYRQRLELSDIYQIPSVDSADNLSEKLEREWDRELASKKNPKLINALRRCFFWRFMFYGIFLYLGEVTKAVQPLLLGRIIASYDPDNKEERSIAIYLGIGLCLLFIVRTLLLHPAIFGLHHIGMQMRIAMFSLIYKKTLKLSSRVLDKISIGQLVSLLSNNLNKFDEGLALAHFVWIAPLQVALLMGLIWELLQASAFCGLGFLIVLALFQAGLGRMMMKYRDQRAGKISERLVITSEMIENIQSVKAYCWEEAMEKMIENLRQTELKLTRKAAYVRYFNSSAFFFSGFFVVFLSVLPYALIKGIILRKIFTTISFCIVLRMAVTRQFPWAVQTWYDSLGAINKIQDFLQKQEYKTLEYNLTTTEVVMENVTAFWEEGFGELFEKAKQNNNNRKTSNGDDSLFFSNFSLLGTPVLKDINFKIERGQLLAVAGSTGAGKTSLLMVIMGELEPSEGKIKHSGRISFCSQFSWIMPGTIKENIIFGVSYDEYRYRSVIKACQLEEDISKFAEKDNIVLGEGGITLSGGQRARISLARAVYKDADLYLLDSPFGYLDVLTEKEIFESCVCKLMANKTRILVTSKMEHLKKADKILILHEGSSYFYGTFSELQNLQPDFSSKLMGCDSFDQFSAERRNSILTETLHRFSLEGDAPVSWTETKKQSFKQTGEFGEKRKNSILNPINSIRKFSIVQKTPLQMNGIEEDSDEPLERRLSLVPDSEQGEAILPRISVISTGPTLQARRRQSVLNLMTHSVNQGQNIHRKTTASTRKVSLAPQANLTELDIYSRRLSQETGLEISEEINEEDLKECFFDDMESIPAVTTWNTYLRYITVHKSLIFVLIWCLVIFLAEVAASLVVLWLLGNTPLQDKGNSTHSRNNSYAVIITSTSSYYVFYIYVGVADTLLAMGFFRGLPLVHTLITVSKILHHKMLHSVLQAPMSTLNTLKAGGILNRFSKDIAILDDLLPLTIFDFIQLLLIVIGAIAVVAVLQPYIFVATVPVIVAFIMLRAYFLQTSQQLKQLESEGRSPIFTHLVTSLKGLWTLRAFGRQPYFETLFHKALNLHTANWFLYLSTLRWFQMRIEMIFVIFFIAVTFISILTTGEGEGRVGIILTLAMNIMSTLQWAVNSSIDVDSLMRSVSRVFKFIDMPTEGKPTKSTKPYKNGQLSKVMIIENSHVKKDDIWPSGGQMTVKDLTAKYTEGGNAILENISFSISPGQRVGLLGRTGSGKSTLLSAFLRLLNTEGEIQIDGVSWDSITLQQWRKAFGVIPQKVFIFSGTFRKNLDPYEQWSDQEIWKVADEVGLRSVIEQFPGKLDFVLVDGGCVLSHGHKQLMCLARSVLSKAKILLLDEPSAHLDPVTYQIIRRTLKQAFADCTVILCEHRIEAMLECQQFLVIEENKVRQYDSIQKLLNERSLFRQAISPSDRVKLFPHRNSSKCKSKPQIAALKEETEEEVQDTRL

This test deals with CFTR (Homo sapiens, UniProt P13569). The experiment in a line: T84 assay (FLIPR membrane potential). The test is classed as cell-based. Details: Human colonic T84 cells are acquired from the European Collection of Cell Cultures (ECACC); host or cells: T84 human colonic cells. The method, then:
(§1) For example, Human colonic T84 cells can be acquired from the European Collection of Cell Cultures (ECACC) and grown in standard culture conditions as described by the supplier. On the day before assay 25,000 T84 cells per well are plated into standard black walled, clear bottom 384-well assay plates in standard growth medium consisting of DMEM:F12 with 10% FBS and incubated overnight. On the day of the assay the plates are washed using a standard assay buffer (HBSS with 10 mM Hepes) and incubated for 15 minutes in serum free cell culture medium before the addition of a commercially available membrane potential sensitive fluorescent dye (FLIPR Red membrane potential dye, Molecular Devices Corporation). T84 cells are incubated with the FLIPR Red membrane potential dye for 45 minutes in the presence and absence of test compound before being transferred to a commercially available fluorescence imaging plate reader (FLIPR384, Molecular Devices Corporation). Fluorescence levels are monitored continuously every second for 150 seconds; after an initial 10 second baseline, CFTR channel activity is stimulated through the addition of 10 μM forskolin in the presence of 100 μM of the phosphodiesterase inhibitor iso-butyl-methylxanthine (IBMX). Addition of the forskolin leads to the activation of intracellular adenylyl cylase 1, elevating cAMP levels and results in the phosphorylation and opening of CFTR anion channels. CFTR channel opening causes chloride ion efflux and subsequent depolarization of the cells, which is measured by an increase in fluorescence. CFTR inhibitor compounds prevent cell depolarization and the associated increase in fluorescence.
as §1, with “Human colonic” for “For example, Human colonic”, “T84 cells are acquired from” for “T84 cells can be acquired from”, “(ECACC) and are grown in” for “(ECACC) and grown in”, “with 10 Mm Hepes) and” for “with 10 mM Hepes) and”, “1, elevating Camp levels and” for “1, elevating cAMP levels and”
In turn, `O=C(NCc1cccc(OC(F)(F)F)c1)c1nnc(-c2cc(Cl)c(O)c(Cl)c2)o1` [Compound 1, 5-(3,5-dichloro-4-hydroxyphenyl)-N-(3-(trifluoromethoxy)benzyl)-1,3,4-oxadiazole-2-carboxamide] yielded an IC50 of 17.4 µM.
Under `O=C(NCc1ccc(Oc2ccccc2)cc1)c1nnc(-c2cc(Cl)c(O)c(Cl)c2)o1` [Compound 2, 5-(3,5-Dichloro-4-hydroxyphenyl)-N-(4-phenoxybenzyl)-1,3,4-oxadiazole-2-carboxamide] stands 3.95 µM.
Then `O=C(c1nnc(-c2cc(Cl)c(O)c(Cl)c2)o1)N1CCC(Cc2ccccc2)CC1` [Compound 3, (4-benzylpiperidin-1-yl)(5-(3,5-dichloro-4-hydroxyphenyl)-1,3,4-oxadiazol-2-yl)methanone], with 9.5 µM.
Under `CC(C)(C)c1ccc(CNC(=O)c2nnc(-c3cc(Cl)c(O)c(Cl)c3)o2)cc1` [Compound 5, N-(4-tert-butylbenzyl)-5-(3,5-dichloro-4-hydroxyphenyl)-1,3,4-oxadiazole-2-carboxamide] stands 7.38 µM; under `O=C(NC(c1ccccc1)c1ccccc1)c1nnc(-c2cc(Cl)c(O)c(Cl)c2)o1` [Compound 6, N-benzhydryl-5-(3,5-dichloro-4-hydroxyphenyl)-1,3,4-oxadiazole-2-carboxamide], 14.6 µM; under `O=C(NCc1ccc(Oc2ccccc2)cc1)c1nnc(-c2cccc(NS(=O)(=O)C(F)(F)F)c2)o1` [Compound 7, N-(4-phenoxybenzyl)-5-(3-(trifluoromethylsulfonamido)phenyl)-1,3,4-oxadiazole-2-carboxamide], 15.8 µM.
Regarding `O=C(c1nnc(-c2cccc(NS(=O)(=O)C(F)(F)F)c2)o1)N1CCC(Cc2ccccc2)CC1` [Compound 8, N-(3-(5-(4-benzylpiperidine-1-carbonyl)-1,3,4-oxadiazol-2-yl)phenyl)-1,1,1-trifluoromethanesulfonamide], 13.3 µM corresponded to half-maximal inhibition (IC50).
Then `CC(C)(C)c1ccc(CNC(=O)c2nnc(-c3cccc(NS(=O)(=O)C(F)(F)F)c3)o2)cc1` [Compound 9, N-(4-tert-butylbenzyl)-5-(3-(trifluoromethylsulfonamido)phenyl)-1,3,4-oxadiazole-2-carboxamide], with 19 µM; and `CN(Cc1ccc(Cl)c(Cl)c1)C(=O)c1nnc(-c2cccc(NS(=O)(=O)C(F)(F)F)c2)o1` [Compound 10, N-(3,4-dichlorobenzyl)-N-methyl-5-(3-(trifluoromethylsulfonamido)phenyl)-1,3,4-oxadiazole-2-carboxamide], with 11.8 µM; and `O=C(c1nnc(-c2cccc(NS(=O)(=O)C(F)(F)F)c2)o1)N1CCN(c2cccc(C(F)(F)F)c2)CC1` [Compound 11, 1,1,1-trifluoro-N-(3-(5-(4-(3-(trifluoromethyl)phenyl)piperazine-1-carbonyl)-1,3,4-oxadiazol-2-yl)phenyl)methanesulfonamide], with 13.4 µM.
Then `CN(Cc1ccc(Cl)c(Cl)c1)C(=O)c1nnc(-c2cc(Cl)c(O)c(Cl)c2)o1` [Compound 12, 5-(3,5-dichloro-4-hydroxyphenyl)-N-(3,4-dichlorobenzyl)-N-methyl-1,3,4-oxadiazole-2-carboxamide], with 1.88 µM; and `CN(Cc1cccc(Oc2ccccc2)c1)C(=O)c1nnc(-c2cc(Cl)c(O)c(Cl)c2)o1` [Compound 13, 5-(3,5-dichloro-4-hydroxyphenyl)-N-methyl-N-(3-phenoxybenzyl)-1,3,4-oxadiazole-2-carboxamide], with 3.26 µM.
Compound `O=C(NCc1cccc(Oc2ccccc2)c1)c1nnc(-c2cc(Cl)c(O)c(Cl)c2)o1` [Compound 14, 5-(3,5-dichloro-4-hydroxyphenyl)-N-(3-phenoxybenzyl)-1,3,4-oxadiazole-2-carboxamide] gave an IC50 of 5.37 µM.
`O=C(NCC(c1ccccc1)c1ccccc1)c1nnc(-c2cc(Cl)c(O)c(Cl)c2)o1` [Compound 15, 5-(3,5-dichloro-4-hydroxyphenyl)-N-(2,2-diphenylethyl)-1,3,4-oxadiazole-2-carboxamide] displayed a half-maximal inhibitory concentration (IC50) of 5.77 µM.
Then `O=C(NCc1cccc(OCc2ccccc2)c1)c1nnc(-c2cc(Cl)c(O)c(Cl)c2)o1` [Compound 16, N-(3-(benzyloxy)benzyl)-5-(3,5-dichloro-4-hydroxyphenyl)-1,3,4-oxadiazole-2-carboxamide], with 7.53 µM.
Under `CN(Cc1ccc(Cl)c(Cl)c1)C(=O)c1nnc(-c2ccc(NS(=O)(=O)C(F)(F)F)cc2)o1` [Compound 17, N-(3,4-dichlorobenzyl)-N-methyl-5-(4-(trifluoromethylsulfonamido)phenyl)-1,3,4-oxadiazole-2-carboxamide] stands 9.62 µM; under `O=C(NCc1ccc(OCc2ccccc2)cc1)c1nnc(-c2cc(Cl)c(O)c(Cl)c2)o1` [Compound 18, N-(4-(benzyloxy)benzyl)-5-(3,5-dichloro-4-hydroxyphenyl)-1,3,4-oxadiazole-2-carboxamide], 9.86 µM.
Under `O=C(NCc1cccc(-c2ccccc2)c1)c1nnc(-c2cc(Cl)c(O)c(Cl)c2)o1` [Compound 19, N-(biphenyl-3-ylmethyl)-5-(3,5-dichloro-4-hydroxyphenyl)-1,3,4-oxadiazole-2-carboxamide] stands 9.89 µM.
`CC(C)(C)c1ccc(CNC(=O)c2nnc(-c3ccc(NS(=O)(=O)C(F)(F)F)cc3)o2)cc1` [Compound 20, N-(4-tert-butylbenzyl)-5-(4-(trifluoromethylsulfonamido)phenyl)-1,3,4-oxadiazole-2-carboxamide] returned an IC50 of 12.7 µM.
Under `O=C(NCc1cc(F)cc(C(F)(F)F)c1)c1nnc(-c2cc(Cl)c(O)c(Cl)c2)o1` [Compound 21, 5-(3,5-dichloro-4-hydroxyphenyl)-N-(3-fluoro-5-(trifluoromethyl)benzyl)-1,3,4-oxadiazole-2-carboxamide] stands 13.6 µM.
`O=C(NCc1ccc(OC(F)(F)F)cc1)c1nnc(-c2cc(Cl)c(O)c(Cl)c2)o1` [Compound 22, 5-(3,5-dichloro-4-hydroxyphenyl)-N-(4-(trifluoromethoxy)benzyl)-1,3,4-oxadiazole-2-carboxamide] showed an IC50 of 14.3 µM.
Under `O=C(NCc1ccc(Oc2ccccc2)cc1)c1nnc(-c2ccc(NS(=O)(=O)C(F)(F)F)cc2)o1` [Compound 23, N-(4-phenoxybenzyl)-5-(4-(trifluoromethylsulfonamido)phenyl)-1,3,4-oxadiazole-2-carboxamide] stands 18.8 µM.
Then `O=C(NCc1ccc(F)c(C(F)(F)F)c1)c1nnc(-c2cc(Cl)c(O)c(Cl)c2)o1` [Compound 24, 5-(3,5-dichloro-4-hydroxyphenyl)-N-(4-fluoro-3-(trifluoromethyl)benzyl)-1,3,4-oxadiazole-2-carboxamide], with 19.7 µM.
The compound `O=C(c1nnc(-c2ccc(NS(=O)(=O)C(F)(F)F)cc2)o1)N1CCN(c2cccc(C(F)(F)F)c2)CC1` [Compound 25, 1,1,1-trifluoro-N-(4-(5-(4-(3-(trifluoromethyl)phenyl)piperazine-1-carbonyl)-1,3,4-oxadiazol-2-yl)phenyl)methanesulfonamide] had an IC50 of 20.6 µM.
Under `CC(NC(=O)c1nnc(-c2cc(Cl)c(O)c(Cl)c2)o1)c1ccc(Cl)cc1` (stereo not shown) [Compound 26, N-(1-(4-chlorophenyl)ethyl)-5-(3,5-dichloro-4-hydroxyphenyl)-1,3,4-oxadiazole-2-carboxamide] stands 27.8 µM.
